Here are results for 59 compounds from the METLIN SMRT retention time set (Domingo-Almenara et al. 2019).

This data set in a line: gradient 5% acetonitrile 3 min, to 50% in 2 min, to 85% in 15 min, held 3 min, 100 µL/min. The note with it: column: Zorbax Extend-C18 2.1 x 50 mm; eluents: water / acetonitrile, 0.1% formic acid. The method in brief: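 A Zorbax Extend-C18 column (2.1 × 50 mm, 1.8 μm) run at 100 μL/min with water and acetonitrile, both containing 0.1% formic acid, separated mixtures of ~100 pure standards. The HPLC was coupled to a quadrupole time-of-flight mass spectrometer operated in positive and negative ionization mode, with dead and dwell volumes of 40 μL and 900 μL. Each retention time was taken from a computationally picked adduct peak that was then manually inspected.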
`COc1ccc2c(c1)C1(CCN(C(=O)Nc3ccc(C)cc3)C1)C(=O)N2` (centres undefined) gave an RP-LC retention time of 745 s.

In the case of `O=C(NCc1ccccc1)c1nc(-c2ccncc2)cs1`, the RP-LC retention time worked out at 575 s.

On to `COC(=O)c1ccc(C(=O)OC)c(NC(=O)CSc2ncnc3sc(C)c(C)c23)c1`, for which the RP-LC retention time is 1130 s.

In the case of `COC(=O)c1c(C)[nH]c(C(=O)N2CCC(CC(=O)NCc3ccc(Cl)cc3)CC2)c1C`, the RP-LC retention time amounted to 774 s.

`Cc1cc(C)cc(N2CCC(NC(=O)Nc3cccc(F)c3C)C2=O)c1` (centres undefined) showed an RP-LC retention time of 938 s.

Compound `O=C(c1cccnc1)N1CCCC(c2n[nH]c(C3CC3)n2)C1` (centres undefined) registered an RP-LC retention time of 486 s.

The compound `CCCCOc1ccc(NC(=O)c2cc(=O)c3ccc(C)c(C)c3o2)c2cccnc12` came in with an RP-LC retention time of 788 s.

Regarding `Cc1nc2ccn(Cc3cccs3)c(=O)c2cc1C(=O)NC1CCCC1`, the RP-LC retention time was 736 s.

`Cc1ccc(F)cc1S(=O)(=O)N1CCCC(C)(C(=O)NCc2cccc(F)c2)C1` (centres undefined): the RP-LC retention time was 1020 s.

Compound `CCc1nc2cc(N3CCC(C(=O)NC(C)CC)CC3)cnc2nc1CC` (centres undefined) gave an RP-LC retention time of 758 s.

As to `Cc1cccc(C(=O)N2CCN(c3c(C)n(C)c(=O)n(C)c3=O)CC2)c1`, the RP-LC retention time worked out at 726 s.

`CCn1nccc1C(=O)Nc1cc(-c2cc3c(OC)cccc3n2CC)[nH]n1` registered an RP-LC retention time of 879 s.

In the case of `COC(=O)c1ccccc1NC(=O)Cn1c(N2CCCC2)nc(C)cc1=O`, the RP-LC retention time was found to be 612 s.

The compound `COCCN1C(=O)c2ccccc2C(C(=O)NCc2ccccc2)C12CCCCC2` (centres undefined) showed an RP-LC retention time of 856 s.

In turn, `COc1ccc(-n2ccn3cc(-c4ccc(F)cc4)nc3c2=O)cc1Cl` returned an RP-LC retention time of 859 s.

For `CCn1ccc2c(cc(C(=O)Nc3ccc(OC)cc3)n2C)c1=O`, the RP-LC retention time was 706 s.

In the case of `CSc1cccc(NC(=O)Cn2cccc(-c3nc(-c4ccccc4)no3)c2=O)c1`, the RP-LC retention time was 911 s.

Compound `COc1ccccc1NC(=O)Cc1csc2nc(-c3ccccc3)cn12` had an RP-LC retention time of 786 s.

`CCCCN1C(=O)C(C)(C(=O)NCc2ccc(C)cc2)Oc2cccnc21` (centres undefined) showed an RP-LC retention time of 1040 s.

The compound `O=C(NCc1cccc(F)c1)N1C[C@@H]2C[C@H](NS(=O)(=O)c3cccnc3)[C@H]1C2` showed an RP-LC retention time of 688 s.

`Cc1ccc(N2C=C(C(=O)N3CCOCC3)S(=O)(=O)c3ccc(F)cc32)cc1` showed an RP-LC retention time of 814 s.

For `CCOc1ccc(NC(=O)C2CCN(S(=O)(=O)c3c(C)nn(-c4ccccc4)c3C)CC2)cc1`, the RP-LC retention time stood at 963 s.

The compound `COc1cc(C(O)c2nc3ccccc3s2)cc(OC)c1OC` (centres undefined) had an RP-LC retention time of 826 s.

The compound `O=C(c1ccccc1)N1CCC(CCNS(=O)(=O)c2ccc(Br)cc2)CC1` had an RP-LC retention time of 909 s.

Turning to `Cc1ccc(CNC(=O)c2ccc3nn(CC(=O)NCCC4=CCCCC4)c(=O)n3c2)cc1`, the RP-LC retention time is 857 s.

The compound `CCC(=O)N1CCN(c2nc3c(s2)CC(C(=O)O)CC3)CC1` (centres undefined) had an RP-LC retention time of 578 s.

Take `CC(=O)N1CCc2cc(N3CC(C(=O)NC(C)c4ccccn4)CC3=O)ccc21` (centres undefined): the RP-LC retention time was 904 s.

Consider `Cc1ccc(C)c(Nc2nc(-c3ccncc3)nc3ccccc23)c1`, for which the RP-LC retention time came out at 772 s.

In turn, `C#Cc1cccc(Nc2ncnc3cc4c(cc23)OCCOCCOCCO4)c1` displayed an RP-LC retention time of 674 s.

The compound `CN(C)c1ccc(NS(=O)(=O)c2c(F)c(F)c(F)c(F)c2F)cc1` yielded an RP-LC retention time of 869 s.

As for `Cc1cc(C)n(-c2ccnc(N3CCN(C(C)C)CC3)n2)n1`, the RP-LC retention time came out at 610 s.

Take `Cc1noc(C)c1Cc1ccc(C(=O)N(C)C2CCc3nnc(C)n3CC2)o1` (centres undefined): the RP-LC retention time turned out to be 602 s.

In the case of `Cc1ccc(C(=O)N2CCN(c3nc(CN4CCC(C)CC4)cs3)CC2)cc1F`, the RP-LC retention time was 688 s.

In turn, `O=C(Cn1cccc1-c1nnc(-c2ccccc2)o1)NCc1ccc2c(c1)OCO2` had an RP-LC retention time of 860 s.

Turning to `Cn1c(CCNC(=O)c2ccc(C(F)(F)F)cc2)nc2cccnc21`, the RP-LC retention time came to 686 s.

Compound `COc1ccc(C(C)NC(=O)Cc2cn(C)c3ncccc23)cc1` (centres undefined) gave an RP-LC retention time of 678 s.

As to `O=C(Cc1ccc(Cl)cc1)NCc1nc(-c2cccc(-c3csc(C4CC4)n3)c2)no1`, the RP-LC retention time is 1120 s.

Compound `CC(=O)N1CCCC1c1nc(C2CN(S(=O)(=O)C(C)C)C2)no1` (centres undefined) had an RP-LC retention time of 635 s.

In the case of `CCn1cc(C(=O)NCc2ccc(F)cc2)c(S(=O)(=O)N2CCSCC2)n1`, the RP-LC retention time came to 915 s.

Consider `CS(=O)(=O)c1ccc(Nc2nc(C(=O)Nc3ccc(F)c(Cl)c3)cs2)cc1`, for which the RP-LC retention time was 843 s.

The compound `CCn1c(=O)sc2cc(S(=O)(=O)N3CCC(C(=O)NCc4cccc(OC)c4)CC3)ccc21` gave an RP-LC retention time of 1000 s.

Compound `COc1ccc(CNC(=O)CN2C(=O)C3CCCCN3c3ccc(S(=O)(=O)N(C)C)cc32)cc1` (centres undefined) registered an RP-LC retention time of 887 s.

The compound `Cc1ccsc1C(=O)Nc1ccc(-c2nnc3n2CCCC3)cc1` registered an RP-LC retention time of 666 s.

In turn, `Cc1cc(C)cc(NS(=O)(=O)c2cc(-c3nc(C(C)C)cs3)cs2)c1` returned an RP-LC retention time of 1210 s.

`COc1ccc(NC(=O)CCOc2ccccc2)cc1` registered an RP-LC retention time of 763 s.

On to `COc1ccc(-c2csc(NC(=O)Cn3c(=O)sc4ccccc43)n2)cc1`, for which the RP-LC retention time came out at 951 s.

Compound `O=S(=O)(Cc1ccccc1)N1CCC(c2noc(COCc3ccccc3)n2)CC1` came in with an RP-LC retention time of 1060 s.

Compound `Cc1ccc(NC(=O)N2CCCC(C)(C(=O)NCc3ccc(F)cc3)C2)c(Cl)c1` (centres undefined) had an RP-LC retention time of 1010 s.

In turn, `CC(C)c1csc(-c2csc(S(=O)(=O)NCc3ccc(Br)cc3)c2)n1` had an RP-LC retention time of 1190 s.

`CCCc1nnsc1C(=O)Nc1ccc2c(c1)CN(C(=O)c1ccco1)CC2`: the RP-LC retention time is 786 s.

With `CC(C)c1ccc(OCC(=O)Nc2nnc(-c3ccc(Br)o3)o2)cc1`, the RP-LC retention time turned out to be 906 s.

Take `CCN(C(=O)Cn1nc(S(=O)(=O)c2ccc(Cl)cc2)ccc1=O)c1ccccc1`: the RP-LC retention time was 920 s.

Turning to `COC(=O)c1ccc(-c2nc3cnccn3c2Nc2c(C)cccc2C)cc1`, the RP-LC retention time is 914 s.

`CCOc1ccc(C2C(=O)N(C3CCCCCC3)CC(=O)N2Cc2ccco2)cc1OC` (centres undefined) returned an RP-LC retention time of 963 s.

With `COCCCNC(=O)Cn1c(=O)c(S(=O)(=O)c2ccccc2)cc2cc(C)ccc21`, the RP-LC retention time was determined as 743 s.

In turn, `CCCNC(=O)N(C1CCOCC1)C1CCN(C(=O)c2ccsc2)CC1` displayed an RP-LC retention time of 680 s.

The compound `CCN(C(=O)C(=O)c1c[nH]c2ccccc12)c1cccc(Cl)c1` had an RP-LC retention time of 882 s.

On to `O=C(CCCc1nnc2c(=O)n(-c3ccc(Cl)cc3)ccn12)N1CCN(c2ccccn2)CC1`, for which the RP-LC retention time came to 595 s.

`O=C(NC1CC1)C1COC2(CCN(C(=O)c3cccc(Cl)c3)CC2)N1C(=O)c1cccc(F)c1` (centres undefined): the RP-LC retention time was 738 s.
